Measurements as given in US20220017512A1 (SHANGHAI ENNOVABIO PHARMACEUTICALS CO., LTD., priority 2018, published 2022).

How the values were obtained:
Type in all cases: biochemical
[1] = target: T1, recombinant human TRKA (G595R) (Homo sapiens, UniProt P04629, G595R); test: In vitro activity test on mutant TRKA (G595R) (HTRF KinEASE TK); conditions: 4.5 μM ATP, 30 min
T1 construct: purchased SignalChem
Method in brief: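 HTRF KinEASE TK format: 0.12 ng/μL recombinant TRKA (G595R), 1 μM biotinylated TK substrate, 4.5 μM ATP, 5 mM MgCl2, 1 mM DTT, 1% DMSO, 30 min at room temperature; detection overnight. IC50 from 10-point 4-fold series (1 μM to 0.004 nM, duplicates), 665/620 ratio, 4-parameter fit.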

[2] = target: T2, Recombinant human TRKB (Homo sapiens, UniProt Q16620); test: In vitro activity test on TRKB kinase (HTRF KinEASE TK); conditions: 4.77 μM ATP, 50 min
T2 construct: purchased Carna Biosciences
Method in brief: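 Recombinant human TRKB (0.037 ng/μL) phosphorylated 1 μM biotinylated TK substrate at 4.77 μM ATP, 5 mM MgCl2, 1% DMSO, 50 min at room temperature; compounds 1 μM–0.05 nM. HTRF KinEASE detection overnight; 665/620 ratio converted to inhibition and IC50 from 4-parameter fit.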

[3] = target: T3, Recombinant human TRKC (Homo sapiens, UniProt Q16288); test: In vitro activity test on TRKC kinase (HTRF KinEASE TK); conditions: 25.64 μM ATP, 40 min
T3 construct: purchased Carna Biosciences
Method in brief: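 Recombinant human TRKC (0.037 ng/μL) with 1 μM biotinylated TK substrate, 25.64 μM ATP, 5 mM MgCl2, 1 mM DTT, 40 min at room temperature; compound 1 μM to 0.05 nM, 1% DMSO. HTRF 665/620 ratio after overnight detection; IC50 from 4-parameter fit.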

[4] = target: T4, Recombinant human TRKA (Homo sapiens, UniProt P04629); test: In vitro activity test on TRKA kinase (HTRF KinEASE TK); conditions: 14.68 μM ATP, 40 min
T4 construct: purchased Carna Biosciences
Method in brief: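 Reaction: 0.2 ng/μL TRKA, 1 μM biotinylated TK substrate, 14.68 μM ATP, 5 mM MgCl2, 1 mM DTT, 1% DMSO, 40 min at room temperature. Compounds tested at 1 μM to 0.05 nM (10-point, 3-fold, duplicate). HTRF 665/620 ratio converted to % inhibition versus no-compound control; IC50 by 4-parameter fit.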

[5] = target: T5, recombinant human TRKA (G667C) (Homo sapiens, UniProt P04629, G667C); test: In vitro activity test on mutant TRKA (G667C) (HTRF KinEASE TK); conditions: 5.5 μM ATP, 30 min
T5 construct: purchased SignalChem
Method in brief: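 HTRF KinEASE TK format with recombinant human TRKA G667C (0.026 ng/μL), 1 μM biotinylated TK substrate, 5.5 […] ATP, 5 mM MgCl2, 1 mM DTT, 1% DMSO; 30 min at room temperature. Detection overnight; 665/620 ratio gives % inhibition, IC50 from 4-parameter fit over 10 doses (1 μM–0.004 nM).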

T4 sequence (P04629 33-796): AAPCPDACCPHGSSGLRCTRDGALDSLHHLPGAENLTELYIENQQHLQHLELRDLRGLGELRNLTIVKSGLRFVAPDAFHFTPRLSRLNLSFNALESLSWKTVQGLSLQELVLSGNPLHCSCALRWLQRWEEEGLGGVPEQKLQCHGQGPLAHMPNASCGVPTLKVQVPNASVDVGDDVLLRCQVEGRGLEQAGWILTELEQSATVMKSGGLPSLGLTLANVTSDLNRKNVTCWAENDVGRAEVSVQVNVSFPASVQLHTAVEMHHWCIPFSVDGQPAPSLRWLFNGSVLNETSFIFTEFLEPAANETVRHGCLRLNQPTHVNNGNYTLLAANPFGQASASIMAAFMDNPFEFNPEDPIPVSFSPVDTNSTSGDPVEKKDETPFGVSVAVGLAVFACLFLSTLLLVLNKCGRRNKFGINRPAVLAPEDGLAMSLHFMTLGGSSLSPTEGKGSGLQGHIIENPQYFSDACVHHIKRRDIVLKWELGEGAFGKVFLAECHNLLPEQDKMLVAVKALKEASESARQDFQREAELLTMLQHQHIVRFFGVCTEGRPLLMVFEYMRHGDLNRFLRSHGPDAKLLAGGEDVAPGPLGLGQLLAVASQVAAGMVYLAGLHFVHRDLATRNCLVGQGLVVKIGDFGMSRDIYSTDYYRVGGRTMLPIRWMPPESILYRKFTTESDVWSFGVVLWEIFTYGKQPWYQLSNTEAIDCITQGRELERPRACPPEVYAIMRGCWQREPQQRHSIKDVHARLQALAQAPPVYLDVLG
T1 sequence (P04629 33-796 G595R): as the sequence (P04629 33-796) above, with G563R counted along it
T3 sequence (Q16288 32-839): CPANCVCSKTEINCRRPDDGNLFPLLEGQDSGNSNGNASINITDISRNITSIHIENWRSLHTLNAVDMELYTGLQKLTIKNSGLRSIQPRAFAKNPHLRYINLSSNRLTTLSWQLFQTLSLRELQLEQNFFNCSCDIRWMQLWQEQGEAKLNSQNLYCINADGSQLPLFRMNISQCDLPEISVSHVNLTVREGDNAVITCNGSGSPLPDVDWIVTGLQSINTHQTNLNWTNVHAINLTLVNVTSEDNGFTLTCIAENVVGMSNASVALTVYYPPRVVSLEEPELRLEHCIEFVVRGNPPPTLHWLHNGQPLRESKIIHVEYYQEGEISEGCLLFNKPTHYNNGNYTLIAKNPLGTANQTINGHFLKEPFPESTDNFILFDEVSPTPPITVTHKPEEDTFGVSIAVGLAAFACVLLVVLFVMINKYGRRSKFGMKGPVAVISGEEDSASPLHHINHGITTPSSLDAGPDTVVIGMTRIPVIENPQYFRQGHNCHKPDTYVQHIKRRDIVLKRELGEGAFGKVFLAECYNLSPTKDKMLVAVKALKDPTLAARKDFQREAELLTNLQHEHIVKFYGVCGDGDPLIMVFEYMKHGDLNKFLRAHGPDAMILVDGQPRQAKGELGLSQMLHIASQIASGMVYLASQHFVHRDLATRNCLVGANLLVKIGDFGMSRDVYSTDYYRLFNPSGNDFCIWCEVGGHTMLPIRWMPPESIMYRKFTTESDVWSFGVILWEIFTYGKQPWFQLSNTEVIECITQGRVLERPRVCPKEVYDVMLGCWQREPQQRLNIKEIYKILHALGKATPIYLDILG
T5 sequence (P04629 33-796 G667C): as the sequence (P04629 33-796) above, with G635C counted along it
T2 sequence (Q16620 32-822): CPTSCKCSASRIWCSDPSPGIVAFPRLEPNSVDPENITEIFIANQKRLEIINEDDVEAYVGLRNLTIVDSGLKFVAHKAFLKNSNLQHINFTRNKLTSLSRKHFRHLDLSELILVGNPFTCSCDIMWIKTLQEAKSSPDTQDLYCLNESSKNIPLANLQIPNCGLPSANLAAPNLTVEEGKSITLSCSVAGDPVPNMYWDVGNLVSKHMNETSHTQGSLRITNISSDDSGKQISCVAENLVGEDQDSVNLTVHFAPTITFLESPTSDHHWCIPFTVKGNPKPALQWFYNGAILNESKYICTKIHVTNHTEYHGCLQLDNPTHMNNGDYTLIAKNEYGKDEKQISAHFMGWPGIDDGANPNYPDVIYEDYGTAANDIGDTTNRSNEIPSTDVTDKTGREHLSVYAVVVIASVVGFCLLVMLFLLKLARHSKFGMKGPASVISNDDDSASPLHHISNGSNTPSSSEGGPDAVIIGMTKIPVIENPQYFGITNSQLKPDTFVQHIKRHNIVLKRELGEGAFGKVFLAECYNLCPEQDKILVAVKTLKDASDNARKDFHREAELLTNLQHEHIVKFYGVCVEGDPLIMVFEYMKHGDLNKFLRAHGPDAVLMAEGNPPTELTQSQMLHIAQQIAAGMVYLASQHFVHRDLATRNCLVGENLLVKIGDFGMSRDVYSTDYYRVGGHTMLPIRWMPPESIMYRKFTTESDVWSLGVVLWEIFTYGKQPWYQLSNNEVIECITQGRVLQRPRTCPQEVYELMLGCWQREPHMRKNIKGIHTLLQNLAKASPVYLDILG

| SMILES | IC50 [1] | IC50 [2] | IC50 [3] | IC50 [4] | IC50 [5] |
| --- | --- | --- | --- | --- | --- |
| Fc1ccc(F)c([C@H]2C[C@H](F)CN2c2ccc3ncc(Cl)c(-c4cnn([C@@H]5CCNC5)c4)c3n2)c1 [Example 56, 7-chloro-2-((2R,4S)-2-(2,5-difluorophenyl)-4-fluoropyrrolidin-1-yl)-8-(1-((R)-pyrrolidin-3-yl)-1H-pyrazol-4-yl)-1,5-naphthyridine] | < 10 nM | < 10 nM | < 1 nM | < 1 nM | < 10 nM |
| OCCN1CCC(n2cc(-c3c(Cl)cnc4ccc(N5C[C@@H](F)C[C@@H]5c5cc(F)ccc5F)nc34)cn2)CC1 [Example 32, 2-(4-(4-(3-chloro-6-((2R,4S)-2-(2,5-difluorophenyl)-4-fluoropyrrolidin-1-yl)-1,5-naphthyridin-4-yl)-1H-pyrazol-1-yl)piperidin-1-yl)ethan-1-ol] | < 1 nM | < 1 nM | < 1 nM | < 1 nM | < 1 nM |
| O[C@H]1CN=C(Nc2ccnc3ccc(N4C[C@@H](F)C[C@@H]4c4cc(F)ccc4F)nc23)OC1 [Example 99, (S)-2-((6-((2R,4S)-2-(2,5-difluorophenyl)-4-fluoropyrrolidin-1-yl)-1,5-naphthyridin-4-yl)amino)-5,6-dihydro-4H-1,3-oxazin-5-ol] | < 1 nM | < 1 nM | < 10 nM | < 1 nM | < 1 nM |
| Fc1ccc(F)c([C@H]2C[C@H](F)CN2c2ccc3ncc(Cl)c(-c4cnn([C@@H]5CCCNC5)c4)c3n2)c1 [Example 54, 7-chloro-2-((2R,4S)-2-(2,5-difluorophenyl)-4-fluoropyrrolidin-1-yl)-8-(1-((R)-piperidin-3-yl)-1H-pyrazol-4-yl)-1,5-naphthyridine] | < 10 nM | < 10 nM | < 10 nM | < 10 nM | < 10 nM |
| O=C(Nc1ccnc2ccc(N3C[C@@H](F)C[C@@H]3c3cc(F)ccc3F)nc12)N1CC[C@H](O)C1 [Example 26, (S)—N-(6-((2R,4S)-2-(2,5-difluorophenyl)-4-fluoropyrrolidin-1-yl)-1,5-naphthyridin-4-yl)-3-hydroxypyrrolidin-1-carboxamide] | < 1 nM | < 1 nM | < 1 nM | < 1 nM | < 1 nM |
| Fc1ccc(F)c([C@H]2C[C@H](F)CN2c2ccc3ncc(Cl)c(-c4cnc(N5CCOCC5)s4)c3n2)c1 [Example 61, 4-(5-(3-chloro-6-((2R,4S)-2-(2,5-difluorophenyl)-4-fluoropyrrolidin-1-yl)-1,5-naphthyridin-4-yl)thiazol-2-yl)morpholine] | < 50 nM | < 50 nM | < 10 nM | < 10 nM | < 10 nM |
